Consider 2 compounds from patent US20120184613A1, “SULFUR-CONTAINING COMPOUND AND USE THEREOF” (SUMITOMO CHEMICAL COMPANY, LIMITED, priority 2008, published 2012).

The experiment deals with Blattalla germanica. As to the kind of experiment: Test Example 3: filter paper with sucrose bait, death rate of Blattalla germanica. The class given is in vivo. As to conditions: 500 ppm test solution, 0.7 ml on filter paper; 2 male imagoes; after 6 days. On the procedure: A formulation of any one of the present compounds (3) and (4) obtained according to Formulation Example 5 was diluted with water to prepare a test solution having 500 ppm of the active ingredient.
A filter paper having a diameter of 5.5 cm was spread on the bottom of a polyethylene cup having a diameter of 5.5 cm and 0.7 ml of the test solution was added dropwise onto the filter paper. As a bait, 30 mg of sucrose was uniformly placed on the filter paper. Into the polyethylene cup, 2 male imagoes of Blattalla germanica were released and the cup was sealed with a lid. After 6 days, the number of surviving or dead Blattalla germanica was counted and the death rate of the pest was calculated.

Compound `COC(C)(C)CS(=O)(=O)C(C#N)CCC(F)(F)C(F)(F)F` (centres unmarked) [(4)] showed a pest death rate of 100%.

Consider `CC(C)OCCS(=O)(=O)C(C#N)CCC(F)(F)C(F)(F)F` (centres unmarked) [(3)], for which the pest death rate stood at 100%.
